Experimental data published in patent US12070472B2, “Treatment of drug resistant proliferative diseases with telomerase mediated telomere altering compounds” (The Board of Regents of the University of Texas System, priority 2016, dated 2024).

Tests used:
Toxicity testing in rats = conditions: for mortality: rats
Protocol: Six rats were treated with 15 mg of 6-thio-dG/kg of body weight every two days. […] Another 5 rats were treated with 50 mg of 6-thio-dG/kg of body weight every other day.

HCC4017 = assay: GI 50 determination, HCC4017; format: cell-based; conditions: Homo sapiens
Protocol: (§1) Cells of each type listed in Table 2 were seeded in chamber slides.

BJ fibroblast cells [1] = assay: Cell morphology and cell count after one week, BJ fibroblasts; format: cell-based, human; conditions: normal BJ fibroblasts; 3 μM twice during one week
HCT116 cells [2] = conditions: 3 μM
Protocol: The TIF assay is based on the co-localization detection of DNA damage by an antibody against DNA damage markers such as gamma-H2AX and telomeres by the telomeric protein TRF2. Briefly, HCT116 cells were plated in 4-well chamber slides and after the cells attached to the surface, either 3 μM 6-thio-dG or 3 μM 6-thio-G was added to the medium at different time points (0, 30 min, 12 h, 24 h, 48 h, 72 h). Slides were rinsed once with PBS and fixed in 4% paraformaldehyde in PBS for 10 min. Then, cells were washed twice with PBS and permeabilized in 0.5% Nonidet-P40 in PBS, blocked with 0.5% Bovine Serum Albumin (BSA) and 0.2% fish gelatin in PBS for 30 min. gamma-H2AX (mouse) (Millipore, Billerica, MA) was diluted 1:1000 and TRF2 (rabbit) (Abcam, Cambridge, MA) was diluted 1:200 in blocking solution and this primary Ab mixture was incubated on cells for 2 h. After three washes with PBST (1×PBS in 0.1% Triton) and 3 washes with PBS, cells were incubated with Alexaflour 488 conjugated goat anti rabbit (1:500) (Invitrogen, Grand Island, NY) and Alexaflour 568 conjugated goat anti mouse (1:500) (Invitrogen) for 40 min, then washed six times with PBS. After drying, the slides were mounted with Vectashield mounting medium with DAPI (Vector Laboratories, Burlingame, CA). […] TIFs were quantified using Imaris software. […]

H1819 = assay: 6-thio-dG on H1819 parental and paclitaxel/carboplatin resistant lines; format: cell-based, human; conditions: 1, 3, 10 μM
Protocol: (§2) The resulting resistant lines and their parents were tested for the effect of 6-thio-dG at 1, 3, and 10 μM concentrations.

HCC515 = assay: GI 50 determination, HCC515; format: cell-based; conditions: Homo sapiens
Protocol: as §1

[3] = test system: HCT116 colon cancer cell line; assay: CellTitreGlo survival, 7 days, HCT116; format: cell-based; conditions: Homo sapiens, HCT-116, 168 h
Protocol: Four different cell lines were treated with nine different doses of 6-thio-dG for 7 days. HCT116 colon cancer cell line (FIG. 9A), HCEC1 normal colonic cell line (FIG. 9C), A549 non-small cell lung cancer cell line (FIG. 9B), and BJ normal fibroblast cell line (FIG. 9D) were each treated. Survival fraction was measured by CellTitreGlo luminescent cell viability assay (Promega).

H1993 cells = assay: Sensitization by 5-azacytidine pretreatment, H1993; format: cell-based, human; conditions: Homo sapiens, NCI-H1993, 500 nM 5-azacytidine one week, then 6-thio-dG one week, read-out: IC50 of 6-thio-dG after 5-azacytidine pretreatment
Protocol: All three resistant cell lines were pre-treated with 500 nM of the demethylating agent 5-azacytidine for one week. Following the 5-azacytidine pretreatment, each resistant cell line was treated with 9 different concentrations (0.01 to 1000 micromolar) of 6-thio-dG for one week. Cells were then evaluation for growth/death.

[4] = test system: paclitaxel/carboplatin resistant H1355; assay: 6-thio-dG on paclitaxel/carboplatin resistant H1355, cell count; format: cell-based, human; conditions: 1, 3, 10 μM every three days for one week
Protocol: A cell count was performed to measure cell growth/death.

H2343 = assay: NSCLC panel sensitivity to 6-thio-dG, H2343; format: cell-based; conditions: Homo sapiens
Protocol: A panel of NSCLC cell lines was tested for sensitivity to 6-thio-dG by performing a cell count after 1 week treatment. Briefly, cells were treated with 3 μM 6-thio-dG every three days for 1 week. Viable cells were counted at the end of treatment. Each 6-thiodG treated cell line was normalized to its DMSO treated control. The results of the cell count are depicted in FIG. 12, with the various cell lines arranged in descending resistance to 6-thio-dG from left to right. […] The IC50 values for the whole panel of tested cells are depicted in FIG. 13. The IC50 values for tested cells are depicted as a column scatter graph in FIG. 14.

HCT116 = assay: GI 50 determination, HCT116; format: cell-based; conditions: Homo sapiens, HCT-116
Protocol: as §1

[5] = test system: A549 human lung cancer cells; assay: Tumor growth in xenograft animal model with A549 cells; format: in vivo, mice; conditions: 2.5 mg/kg every day
Protocol: Doses of 2.5 mg/kg of 6-thio-dG and 2.5 mg/kg of 6-thio-G were injected every day into mice after tumor implantation and providing time for tumor initiation. DMSO injections were used for the control. The volume of the tumor was measured.

HCT116 cells [6] = conditions: 3 μM twice during one week
Protocol: Cancer HCT116 and normal BJ fibroblast cells were treated with 6-thio-dG (3 μM) and 6-thio-G (3 μM) twice during one week. Following one week of the treatment, cell morphology was monitored, and then the cells were collected and counted.

H2882 = assay: GI 50 determination, H2882; format: cell-based; conditions: Homo sapiens, NCI-H2882
Protocol: as §1

H2073 = assay: NSCLC panel sensitivity to 6-thio-dG, H2073; format: cell-based; conditions: Homo sapiens, NCI-H2073
Source text: Two isogenic pairs of NSCLC cell lines were studied for sensitization to 6-thio-dG treatment.

BJ fibroblast cells [7] = assay: Telomere length assay (TRF), BJ fibroblasts long-term culture; format: cell-based, human; conditions: 10 weeks, compared to untreated control
Protocol: For long-term cellular experiments, HCT116 (1,000 cells/cm^2) and BJ (10,000 cells/cm^2) cells were fed with 6-thio-dG (1, 3, 10 μM) containing medium every three days. The cells were counted and replated every week for 10-16 weeks. Additionally, HCT116 cells (1,000 cells/cm^2) were fed with 6-thio-G (1, 3, 10 μM) every three days and each week cells were counted, collected for TRF (Telomere Restriction Fragment) analysis and replated. HCT116 cells, following treatment with 10 μM 6-thio-dG for 12 weeks, were then treated with a combination of 10 μM 6-thio-dG and 3 μM GRN163L for 2-4 weeks.

HCT116 sub clones = assay: 6-thio-dG on HCT116 sub clone cell lines, cell count; format: cell-based, human; conditions: for sensitivity (cell count): 3 μM for 4 weeks
Protocol: In a separate experiment, 31 sub clone cell lines were derived from HCT116 cells that had no prior treatment with 6-thio-dG. […] At the end of one week, a cell count was performed of treated cells and cell percentage calculated relative to control cell count (FIG. 22). […] Four of the sub clone cell lines were further studied for resistance to 6-thio-dG. […] HCT116 Control group represent the main population treated with DMSO:water for 1-4 weeks. At the end of 4 weeks a cell count was performed to quantify cell growth. […] (FIG. 23)

HCC15 = assay: GI 50 determination, HCC15; format: cell-based; conditions: Homo sapiens
Protocol: as §1

HCT116 cells [8] = assay: Tumor growth in xenograft animal model with HCT116 cells; format: in vivo, mice; conditions: 2 mg/kg IP every two days, 6 injections
Protocol: Doses of 2 mg/kg of 6-thio-dG and 2 mg/kg of 6-thio-G were IP injected every two days for a total of 6 injections into mice. DMSO injections were used for the control. The volume of the tumor was measured.

[9] = test system: HCC4017 paclitaxel/carboplatin resistant cell line; assay: 6-thio-dG on HCC4017 paclitaxel/carboplatin resistant line; format: cell-based, human; conditions: 1, 3, 10 μM
Protocol: as §2

Nc1nc2c(ncn2[C@H]2C[C@H](O)[C@@H](CO)O2)c(=S)[nH]1 [6-thio-dG, 6-thio-2′-deoxyguanosine]
signs of impaired function in surviving animals (Toxicity testing in rats; rat, in vivo, 15 mg/kg): no signs of impaired function
mortality (Toxicity testing in rats; 15 mg/kg every two days, six rats): One rat died after 6 injections
mortality (Toxicity testing in rats; 50 mg/kg every other day, 5 rats): All rats died after 12 days
GI50 (HCC4017): 900 nM
morphology and cell counts (BJ fibroblast cells [1]): only slightly affected
increase in telomeric DNA damage as compared to 6-thio-G (HCT116 cells [2]; after 72 h): 2.8 fold
genomic DNA damage (HCT116 cells [2]; compared to 6-thio-G): overall increase in genomic DNA damage
sensitivity (H1819): resistant to 6-thio-dG
GI50 (HCC515): 2400 nM
IC50 [3]: 1100 nM
IC50 (H1993 cells): ~4100 nM
sensitivity (cell count) [4]: sensitive to all three concentrations
IC50 (H2343): 3000 to 7000 nM
GI50 (HCT116): 1000 nM
histology of residual tumors [5]: mostly fibrotic and often associated with apoptotic and inflammatory cells
rate of tumor growth (tumor volume) ([5]; compared to control and 6-thio-G): rate of tumor growth was less
cell death / cell count (HCT116 cells [6]): death of the vast majority of HCT116 cells
GI50 (H2882): 400 nM
IC50 (H2073): > 700 nM
telomere shortening (TRF) (BJ fibroblast cells [7]): did not show enhanced telomere shortening
sensitivity (cell count) (HCT116 sub clones; HCT116 clone #5): remained sensitive for the duration of the experiment
sensitivity (cell count relative to control) (HCT116 sub clones; HCT116 clone #8, 3 μM every three days for one week): became intrinsically resistant to 6-thio-dG treatment
sensitivity (cell count) (HCT116 sub clones; HCT116 clone #8): maintained resistance for the duration of the treatment
sensitivity (cell count) (HCT116 sub clones; HCT116 clone #15): remained sensitive for the duration of the experiment
sensitivity (cell count) (HCT116 sub clones; HCT116 sub clone #31): acquired resistance and by week 4 showed cell growth indistinguishable from controls
GI50 (HCC15): 800 nM
rate of tumor growth (tumor volume) (HCT116 cells [8]): rate of tumor growth was less
sensitivity [9]: still sensitive to 6-thio-dG
